Source: US20080300243A1, “Amide Derivatives as Ion-Channel Ligands and Pharmaceutical Compositions and Methods of Using the Same” (priority 2005, published 2008)

How the values were obtained:
VR1 [1] = target: T1, VR1 (Homo sapiens, UniProt Q8NER1); assay: Calcium uptake assay, low pH (proton) stimulus; format: cell-based; parameters: expressed in transfected cells; host or cells: T-REx HEK 293 (Invitrogen), pcDNA5/TO vector; conditions: HEK293; 0.3 μM compound; low pH agonist; HEK 293 cells expressing hVR1; read-out: Low pH % Inhib. @ 0.3 μM
Target sequence in this assay (Q8NER1 whole entry): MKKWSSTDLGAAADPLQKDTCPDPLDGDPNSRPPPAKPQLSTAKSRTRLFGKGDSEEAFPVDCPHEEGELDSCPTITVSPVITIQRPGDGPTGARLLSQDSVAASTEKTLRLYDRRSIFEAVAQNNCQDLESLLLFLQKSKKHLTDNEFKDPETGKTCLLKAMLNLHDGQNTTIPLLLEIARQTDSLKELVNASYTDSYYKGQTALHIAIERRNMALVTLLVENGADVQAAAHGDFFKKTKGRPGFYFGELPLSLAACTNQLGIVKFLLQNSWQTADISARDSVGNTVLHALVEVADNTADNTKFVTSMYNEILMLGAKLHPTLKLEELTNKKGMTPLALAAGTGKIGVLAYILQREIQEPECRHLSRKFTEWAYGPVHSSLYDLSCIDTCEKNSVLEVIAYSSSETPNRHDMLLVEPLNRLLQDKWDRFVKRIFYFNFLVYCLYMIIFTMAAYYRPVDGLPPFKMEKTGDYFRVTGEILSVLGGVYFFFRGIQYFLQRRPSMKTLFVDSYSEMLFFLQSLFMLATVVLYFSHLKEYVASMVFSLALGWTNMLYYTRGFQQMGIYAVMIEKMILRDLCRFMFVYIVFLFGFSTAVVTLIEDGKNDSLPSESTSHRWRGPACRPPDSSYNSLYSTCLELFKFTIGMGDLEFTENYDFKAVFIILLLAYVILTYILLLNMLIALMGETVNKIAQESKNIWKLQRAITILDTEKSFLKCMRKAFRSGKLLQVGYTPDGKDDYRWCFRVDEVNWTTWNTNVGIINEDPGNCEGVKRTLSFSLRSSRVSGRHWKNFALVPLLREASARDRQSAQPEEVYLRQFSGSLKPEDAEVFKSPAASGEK

[2] = Half-life in human liver microsomes (HLM); format: in vitro ADME; conditions: human, human liver microsomes (HLM, HL101), pH 7.4; 1 μM compound, 0.78 mg/mL HLM, 37° C., NADPH
Experimental: Test compounds (1 μM) were incubated with 3.3 mM MgCl2 and 0.78 mg/mL HLM (HL101) in 100 mM potassium phosphate buffer (pH 7.4) at 37° C. on the 96-deep well plate. The reaction mixture was split into two groups, a non-P450 and a P450 group. NADPH was only added to the reaction mixture of the P450 group. An aliquot of samples of P450 group was collected at 0, 10, 30, and 60 min time point, where 0 min time point indicated the time when NADPH was added into the reaction mixture of P450 group. An aliquot of samples of non-P450 group was collected at −10 and 65 min time point. Collected aliquots were extracted with acetonitrile solution containing an internal standard. The precipitated protein was spun down in centrifuge (2000 rpm, 15 min). The compound concentration in supernatant was measured by LC/MS/MS system.
The half-life value was obtained by plotting the natural logarithm of the peak area ratio of compounds/internal standard versus time. The slope of the line of best fit through the points yields the rate of metabolism (k). This was converted to a half-life value using following equations:
Exemplary compounds of the invention were tested (1 μM), and were incubated with 3.3 mM MgCl2 and 0.78 mg/mL HLM (HL101) in 100 mM potassium phosphate buffer (pH 7.4) at 37° C. on the 96-deep well plate. The reaction mixture was split into two groups, a non-P450 and a P450 group. NADPH was only added to the reaction mixture of the P450 group. An aliquot of samples of the P450 group was collected at 0, 10, 30, and 60 minute time points, where the 0 minute time point indicated the time when NADPH was added into the reaction mixture of the P450 group. An aliquot of samples of the non-P450 group was collected at −10 and 65 minute time points. Collected aliquots were extracted with an acetonitrile solution containing an internal standard. The precipitated protein was spun down in a centrifuge (2000 rpm, 15 rain). The compound concentration in supernatant was measured by LC/MS/MS system. The half-life value (T1/2) was obtained by plotting the natural logarithm of the peak area ratio of compounds/internal standard versus time. The slope of the line of best fit through the points yields the rate of metabolism (k). This was converted to a half-life value using following equations: Half-life=ln 2/k.

VR1 [3] = target: T1, VR1; assay: Acid stimulation assay (FDSS 6000); format: cell-based; parameters: host or cells: unspecified cell suspension; conditions: final assay buffer pH5.8, 15 min pre-incubation
Experimental: The Acid-induced changes in the intracellular calcium concentration were monitored using FDSS 6000 (Hamamatsu Photonics, Japan), a fluorometric imaging system. The cell suspension in resting buffer (HBSS supplemented with […], pH 7.4) was pre-incubated with varying concentrations of the test compounds or resting buffer (buffer control) for 15 minutes at room temperature under dark conditions. The cells were automatically added the stimulating solution (HBSS supplemented with MES, final assay buffer pH5.8) by the FDSS 6000.
Target sequence in this assay (Q8NER1 whole entry, species assumed): as the sequence (Q8NER1 whole entry) above

VR1 [4] = target: T1, VR1; assay: Calcium uptake assay, capsaicin stimulus; format: cell-based; parameters: expressed in transfected cells; host or cells: T-REx HEK 293 (Invitrogen), pcDNA5/TO vector; conditions: 3 nM compound
Target sequence in this assay (Q8NER1 whole entry): as above

VR1 receptor = target: T2, VR1 receptor (Rattus norvegicus, UniProt O35433); assay: Calcium imaging assay in DRG neurons, capsaicin stimulus; format: cell-based; conditions: for inhibition of the Capsaicin induced intracellular calcium response (FIG. 1): 3 nM compound, DRG neurons
T2 construct: endogenous in cells; host or cells: dorsal root ganglion (DRG) neurons
Experimental: Therefore the functional activity of compounds at the VR1 receptor may be determined by measuring changes in intracellular calcium levels in neurons such as the dorsal root ganglion. […] Prior to assay, cells were loaded with 5 μg/ml Fura2 in normal saline solution at 37° C. for 40 minutes. Cells were then washed with normal saline to remove dye before commencement of the experiment. The plated neurons were transferred into a chamber on the stage of a Nikon eclipse TE300 microscope after which neurons were allowed to attain a stable fluorescence for about 10 minutes before beginning the experiment. The assay consists of two stages, a pretreatment phase followed by a treatment phase. First, a solution of the test compound was added from a multivalve perfusion system to the cells for 1 minute (pretreatment). […] Fura2 was excited at 340 and 380 nm to indicate relative calcium ion concentration. Changes in wavelength measurements were made throughout the course of the experiment. The fluorescence ratio was calculated by dividing fluorescence measured at 340 nm by that at 380 nm. Data were collected using Intelligent Imaging's Slidebook software.

T2 sequence (O35433 whole entry): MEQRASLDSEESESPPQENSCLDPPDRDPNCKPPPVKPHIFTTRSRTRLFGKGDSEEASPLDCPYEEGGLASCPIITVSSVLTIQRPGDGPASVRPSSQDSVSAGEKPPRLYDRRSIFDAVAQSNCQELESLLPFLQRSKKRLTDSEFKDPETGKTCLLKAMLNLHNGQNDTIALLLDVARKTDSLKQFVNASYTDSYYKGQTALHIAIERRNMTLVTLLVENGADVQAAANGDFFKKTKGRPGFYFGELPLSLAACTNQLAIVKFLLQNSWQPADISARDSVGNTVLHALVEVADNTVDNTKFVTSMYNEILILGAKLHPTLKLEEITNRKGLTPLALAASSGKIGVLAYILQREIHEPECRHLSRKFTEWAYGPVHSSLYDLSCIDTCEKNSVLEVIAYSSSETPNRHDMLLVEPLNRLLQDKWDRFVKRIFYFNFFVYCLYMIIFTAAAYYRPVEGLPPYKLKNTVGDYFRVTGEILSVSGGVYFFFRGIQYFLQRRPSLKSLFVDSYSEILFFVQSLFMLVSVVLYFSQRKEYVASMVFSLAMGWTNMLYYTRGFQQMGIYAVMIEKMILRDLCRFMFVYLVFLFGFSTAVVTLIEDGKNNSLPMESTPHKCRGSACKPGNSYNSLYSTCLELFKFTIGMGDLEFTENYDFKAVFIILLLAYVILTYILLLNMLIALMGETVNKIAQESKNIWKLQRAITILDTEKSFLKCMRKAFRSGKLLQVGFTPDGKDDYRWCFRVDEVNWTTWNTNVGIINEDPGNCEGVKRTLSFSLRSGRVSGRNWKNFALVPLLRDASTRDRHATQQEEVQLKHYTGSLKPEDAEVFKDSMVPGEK

inhibition at 0.3 µM (VR1 [1]) | half-life at 1 μM [2] | IC50 (VR1 [3]) | inhibition of the Capsaicin induced intracellular calcium response (FIGS. 2-6) (VR1 [4]) | inhibition of the Capsaicin induced intracellular calcium response (FIG. 1) (VR1 receptor) | inhibition of the Capsaicin induced intracellular calcium response (FIG. 1) (VR1 receptor; listed as compound 225) | inhibition at 0.003 µM (VR1 receptor; DRG neuron, read-out: % inhibition of capsaicin induced calcium influx) | SMILES
116% | 0.75 h | 5 nM |  |  |  |  | O=C(Nc1ccc2c(c1)OCC(CO)N2)c1ccc(/C=C/C(F)(F)F)cc1 (stereo not drawn) [Compound 111]
109% | 1.24 h | 3 nM |  |  |  |  | CC(C)(C)C#Cc1ccc(C(=O)Nc2ccc3c(c2)OC[C@H](CO)N3)c(F)c1 [Compound 172]
98% | 9.47 h | 3 nM | significant inhibition |  |  |  | Cc1cc(/C=C/C(F)(F)F)ccc1C(=O)Nc1cnc2ccccc2c1 [Compound 187]
107% |  | 7 nM | significant inhibition |  |  |  | Cc1cc(C#CC(C)(C)C)ccc1C(=O)Nc1ccc2c(c1)OCC(CO)N2 (stereo not drawn) [Compound 167]
110% | 3.26 h | 0.9 nM |  | significant inhibition | reduced | > 75% | Cc1cc(/C=C/C(F)(F)F)ccc1C(=O)Nc1ccc2sc(CO)nc2c1 [Compound 225]
100% | 1.37 h | 5 nM |  |  |  |  | O=C(Nc1ccc2c(c1)OCC(CO)N2)c1ccc(C#CC2CC2)cc1F (stereo not drawn) [Compound 127]
99% | 0.02 h | 1 nM | significant inhibition |  |  |  | O=C(Nc1cccc2cnccc12)c1ccc(C#CC(F)(F)F)cc1 [Compound 45]
103% | 1.03 h | 5 nM |  |  |  |  | Cc1cc(/C=C/C(F)(F)F)ccc1C(=O)Nc1ccc2c(c1)OCCN2 [Compound 118]
99% | 0.34 h | 3 nM | significant inhibition |  |  |  | C/C(=C\C(F)(F)F)c1ccc(C(=O)Nc2ccc3c(c2)OCCN3)cc1 [Compound 96]
100% |  | 3 nM | significant inhibition |  |  |  | Cc1cc(/C=C/C(F)(F)F)ccc1C(=O)Nc1cnc2c(c1)OCC(CO)N2 (stereo not drawn) [Compound 233]
106% |  | 3 nM |  |  |  |  | Cc1cc(/C=C/C(C)(C)C)ccc1C(=O)Nc1cnc2ccccc2c1 [Compound 210]
106% | 0.49 h | 2.5 nM |  |  |  |  | O=C(Nc1cccc2cnccc12)c1ccc(/C=C/C(F)(F)F)cc1 [Compound 35]
60% |  | 3 nM |  |  |  |  | Cc1cc(/C=C/C(F)(F)F)ccc1C(=O)Nc1ccc2c(c1)OC[C@H](CO)N2 [Compound 195]
101% |  | 3 nM |  |  |  |  | Cc1cc(C#CC(C)(C)C)ccc1C(=O)Nc1ccc2scnc2c1 [Compound 198, N-(benzo[d]thiazol-5-yl)-2-methyl-4-(3,3-dimethylbut-1-ynyl)benzamide]
